From ChEMBL document CHEMBL1201862, “PubChem BioAssay data set” (2004)
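Briefly, cells in 96-well plates were exposed to five compound concentrations for 48 h, and endpoints were estimated by linear interpolation. GI50: concentration for 50% inhibition of growth.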 Active and inactive are the calls of the source. Cut-off read from the data, not from the text of the source: active = GI50 up to about 1.1 µM and inactive = higher.

Assays:
Assay in all cases: growth of human tumour cells (NCI), 48 h
786-0 = test system: 786-0
A498 = test system: A498
BT-549 = test system: BT-549
CCRF-CEM = test system: CCRF-CEM
EKVX = test system: EKVX
HCC 2998 = test system: HCC 2998
HT-29 = test system: HT-29
Hs-578T = test system: Hs-578T
IGROV-1 = test system: IGROV-1
K562 = test system: K562
NCI-H522 = test system: NCI-H522
OVCAR-3 = test system: OVCAR-3
RPMI-8226 = test system: RPMI-8226
SK-MEL-28 = test system: SK-MEL-28
SK-MEL-2 = test system: SK-MEL-2
SK-MEL-5 = test system: SK-MEL-5
SK-OV-3 = test system: SK-OV-3
SNB-19 = test system: SNB-19
T47D = test system: T47D

| SMILES | GI50 (786-0) | GI50 (A498) | GI50 (BT-549) | GI50 (CCRF-CEM) | GI50 (EKVX) | GI50 (HCC 2998) | GI50 (HT-29) | GI50 (Hs-578T) | GI50 (IGROV-1) | GI50 (K562) | GI50 (NCI-H522) | GI50 (OVCAR-3) | GI50 (RPMI-8226) | GI50 (SK-MEL-28) | GI50 (SK-MEL-2) | GI50 (SK-MEL-5) | GI50 (SK-OV-3) | GI50 (SNB-19) | GI50 (T47D) |
| --- | --- | --- | --- | --- | --- | --- | --- | --- | --- | --- | --- | --- | --- | --- | --- | --- | --- | --- | --- |
| O=[N+]([O-])C(=C/c1cccs1)/C(=C\c1cccs1)[N+](=O)[O-] | 0.298 µM (active) | 1.64 µM (inactive) | 1.35 µM (inactive) | 0.0263 µM (active) | 2.29 µM (inactive) | 1.21 µM (inactive) | 1.12 µM (inactive) | 1.13 µM (inactive) | 0.774 µM (active) | 0.272 µM (active) | 0.327 µM (active) | 1.85 µM (inactive) | 0.267 µM (active) | 0.395 µM (active) | 1.75 µM (inactive) | 1.08 µM (active) | 2.89 µM (inactive) | 1.98 µM (inactive) | 1.68 µM (inactive) |
| CSC1=NC(=O)CCN1C1OCC(OC(C)=O)C(OC(C)=O)C1OC(C)=O (centres undefined) | 16.3 µM (inactive) | 15.6 µM (inactive) | 15.1 µM (inactive) | 5.9 µM (inactive) | 20.1 µM (inactive) | 21.8 µM (inactive) | 17.9 µM (inactive) | 12.6 µM (inactive) | 15.1 µM (inactive) | 3.65 µM (inactive) | 18.2 µM (inactive) | 12.6 µM (inactive) | 6.9 µM (inactive) | 16.1 µM (inactive) | 13.6 µM (inactive) | 10.9 µM (inactive) | 15.2 µM (inactive) | 16.3 µM (inactive) | 16.8 µM (inactive) |
| C=C1CC(Cn2cc(Br)c(=O)[nH]c2=O)(c2ccc(Br)cc2)OC1=O (centres undefined) | 1.63 µM (inactive) | 1.22 µM (inactive) | 2.37 µM (inactive) | 0.614 µM (active) | 17.9 µM (inactive) | 3.48 µM (inactive) | 2.3 µM (inactive) | 5.98 µM (inactive) | 1.89 µM (inactive) | 0.644 µM (active) | 1.6 µM (inactive) | 3.34 µM (inactive) | 0.331 µM (active) | 7.19 µM (inactive) | 1.72 µM (inactive) | 3.01 µM (inactive) | 12.2 µM (inactive) | 15.8 µM (inactive) | 2.03 µM (inactive) |
| CN(CC(=O)O)CC(=O)O | > 100 µM (inactive) | > 100 µM (inactive) | > 100 µM (inactive) | > 100 µM (inactive) | > 100 µM (inactive) | > 100 µM (inactive) | > 100 µM (inactive) | > 100 µM (inactive) | > 100 µM (inactive) | > 100 µM (inactive) | > 100 µM (inactive) | > 100 µM (inactive) | > 100 µM (inactive) | > 100 µM (inactive) | > 100 µM (inactive) | 31 µM (inactive) | > 100 µM (inactive) | > 100 µM (inactive) | > 100 µM (inactive) |
| NC1CC(=O)c2c(I)sc(I)c21 (centres undefined) | 11.2 µM (inactive) | 20 µM (inactive) | 18.4 µM (inactive) | 3.27 µM (inactive) | 19.9 µM (inactive) | 22 µM (inactive) | 20.2 µM (inactive) | 30.3 µM (inactive) | 15.2 µM (inactive) | 8.95 µM (inactive) | 7.69 µM (inactive) | 20 µM (inactive) | 4.41 µM (inactive) | 21.4 µM (inactive) | 17.9 µM (inactive) | 27.6 µM (inactive) | 44.5 µM (inactive) | 23.8 µM (inactive) | 46.2 µM (inactive) |
| CC1=NN(c2nc(N)nc(CO)n2)C(C)(C)C1 | > 100 µM (inactive) | > 100 µM (inactive) | > 100 µM (inactive) | > 100 µM (inactive) | > 100 µM (inactive) | > 100 µM (inactive) | > 100 µM (inactive) | > 100 µM (inactive) | > 100 µM (inactive) | > 100 µM (inactive) | > 100 µM (inactive) | > 100 µM (inactive) | > 100 µM (inactive) | > 100 µM (inactive) | > 100 µM (inactive) | > 100 µM (inactive) | > 100 µM (inactive) | > 100 µM (inactive) | > 100 µM (inactive) |
